Read-outs that look alike come from different tables or passages of the source.
Tested on: P. aeruginosa
Test: MIC, broth microdilution, CDC/FDA Antibiotic Resistance Isolate Bank (Example 7, Tables 10, 15)
Type: cell-based
Conditions: for MIC: Pseudomonas aeruginosa, read-out: MIC
[1] = 26 metallo-carbapenemase-producing P. aeruginosa strains, β-lactamase inhibitor µg/mL in parentheses
[2] = 96 strains of P. aeruginosa, β-lactamase inhibitor µg/mL in parentheses

NCC[C@H](O)C(=O)N[C@@H]1C[C@H](N)[C@@H](O[C@H]2O[C@H](CN)[C@@H](O)[C@H](O)[C@H]2O)[C@H](O)[C@H]1O[C@H]1O[C@H](CO)[C@@H](O)[C@H](N)[C@H]1O [Amikacin, amikacin]
2 mg/L: MIC (P. aeruginosa KUB No. 5670, AR Bank # 237) | MIC (P. aeruginosa KUB No. 5689, AR Bank # 256) | MIC (P. aeruginosa KUB No. 5692, AR Bank # 259) | MIC (P. aeruginosa KUB No. 5697, AR Bank # 264) | MIC (P. aeruginosa KUB No. 5752, AR Bank # 356) | MIC (P. aeruginosa KUB No. 5787, AR Bank # 441)
4 mg/L: MIC (P. aeruginosa KUB No. 5551, AR Bank # 54) | MIC (P. aeruginosa KUB No. 5666, AR Bank # 23) | MIC (P. aeruginosa KUB No. 5671, AR Bank # 238) | MIC (P. aeruginosa KUB No. 5680, AR Bank # 247) | MIC (P. aeruginosa KUB No. 5691, AR Bank # 258) | MIC (P. aeruginosa KUB No. 5695, AR Bank # 262) | MIC (P. aeruginosa KUB No. 5702, AR Bank # 269) | MIC (P. aeruginosa KUB No. 5704, AR Bank # 271) | MIC (P. aeruginosa KUB No. 5705, AR Bank # 272) | MIC (P. aeruginosa KUB No. 5748, AR Bank # 352) | MIC (P. aeruginosa KUB No. 5754, AR Bank # 358) | MIC (P. aeruginosa KUB No. 5755, AR Bank # 359) | MIC (P. aeruginosa KUB No. 5756, AR Bank # 360)
32 mg/L: MIC (P. aeruginosa KUB No. 5587, AR Bank # 90) | MIC (P. aeruginosa KUB No. 5591, AR Bank # 94) | MIC (P. aeruginosa KUB No. 5600, AR Bank # 103) | MIC (P. aeruginosa KUB No. 5674, AR Bank # 241) | MIC (P. aeruginosa KUB No. 5676, AR Bank # 243) | MIC (P. aeruginosa KUB No. 5696, AR Bank # 263)
8 µg(mL): MIC against 96 strains of P. aeruginosa MIC50 [2]
64 mg/L: MIC (P. aeruginosa KUB No. 5668, AR Bank # 235) | MIC (P. aeruginosa KUB No. 5673, AR Bank # 240) | MIC (P. aeruginosa KUB No. 5675, AR Bank # 242) | MIC (P. aeruginosa KUB No. 5681, AR Bank # 248) | MIC (P. aeruginosa KUB No. 5693, AR Bank # 260) | MIC (P. aeruginosa KUB No. 5747, AR Bank # 351) | MIC (P. aeruginosa KUB No. 5749, AR Bank # 353) | MIC (P. aeruginosa KUB No. 5788, AR Bank # 443) | MIC (P. aeruginosa KUB No. 5790, AR Bank # 445)
>64 µg(mL): MIC against 26 metallo-carbapenemase-producing strains MIC50 [1] | MIC against 26 metallo-carbapenemase-producing strains MIC90 [1] | MIC against 96 strains of P. aeruginosa MIC90 [2]
16 mg/L: MIC (P. aeruginosa KUB No. 5662, AR Bank # 229) | MIC (P. aeruginosa KUB No. 5694, AR Bank # 261) | MIC (P. aeruginosa KUB No. 5700, AR Bank # 267) | MIC (P. aeruginosa KUB No. 5703, AR Bank # 270)
8 mg/L: MIC (P. aeruginosa KUB No. 579, AR Bank # 447) | MIC (P. aeruginosa KUB No. 5602, AR Bank # 105) | MIC (P. aeruginosa KUB No. 5664, AR Bank # 231) | MIC (P. aeruginosa KUB No. 5665, AR Bank # 232) | MIC (P. aeruginosa KUB No. 5667, AR Bank # 234) | MIC (P. aeruginosa KUB No. 5669, AR Bank # 236) | MIC (P. aeruginosa KUB No. 5677, AR Bank # 244) | MIC (P. aeruginosa KUB No. 5684, AR Bank # 251) | MIC (P. aeruginosa KUB No. 5690, AR Bank # 257) | MIC (P. aeruginosa KUB No. 5698, AR Bank # 265) | MIC (P. aeruginosa KUB No. 5699, AR Bank # 266) | MIC (P. aeruginosa KUB No. 5701, AR Bank # 268) | MIC (P. aeruginosa KUB No. 5750, AR Bank # 354) | MIC (P. aeruginosa KUB No. 5751, AR Bank # 355) | MIC (P. aeruginosa KUB No. 5786, AR Bank # 440)
0.5 mg/L: MIC (P. aeruginosa KUB No. 5592, AR Bank # 95) | MIC (P. aeruginosa KUB No. 5685, AR Bank # 252)
1 mg/L: MIC (P. aeruginosa KUB No. 5561, AR Bank # 64)
> 64 mg/L: MIC (P. aeruginosa KUB No. 5083, AR Bank # 250) | MIC (P. aeruginosa KUB No. 5589, AR Bank # 92) | MIC (P. aeruginosa KUB No. 5597, AR Bank # 100) | MIC (P. aeruginosa KUB No. 5605, AR Bank # 108) | MIC (P. aeruginosa KUB No. 5607, AR Bank # 110) | MIC (P. aeruginosa KUB No. 5608, AR Bank # 111) | MIC (P. aeruginosa KUB No. 5663, AR Bank # 230) | MIC (P. aeruginosa KUB No. 5672, AR Bank # 239) | MIC (P. aeruginosa KUB No. 5678, AR Bank # 245) | MIC (P. aeruginosa KUB No. 5679, AR Bank # 246) | MIC (P. aeruginosa KUB No. 5682, AR Bank # 249) | MIC (P. aeruginosa KUB No. 5687, AR Bank # 254) | MIC (P. aeruginosa KUB No. 5688, AR Bank # 255) | MIC (P. aeruginosa KUB No. 5753, AR Bank # 357) | MIC (P. aeruginosa KUB No. 5785, AR Bank # 439) | MIC (P. aeruginosa KUB No. 5789, AR Bank # 444)
